In patent US9624214B2, “Amino-substituted imidazo[1,2-a]pyridinecarboxamides and their use” (BAYER PHARMA AKTIENGESELLSCHAFT, priority 2012, dated 2017):

Target: T1, recombinant guanylate cyclase reporter cell line (Rattus norvegicus, UniProt P19686+P20595)
T1 construct: expressed in transfected cells
T1 sequence (P20595 1-619): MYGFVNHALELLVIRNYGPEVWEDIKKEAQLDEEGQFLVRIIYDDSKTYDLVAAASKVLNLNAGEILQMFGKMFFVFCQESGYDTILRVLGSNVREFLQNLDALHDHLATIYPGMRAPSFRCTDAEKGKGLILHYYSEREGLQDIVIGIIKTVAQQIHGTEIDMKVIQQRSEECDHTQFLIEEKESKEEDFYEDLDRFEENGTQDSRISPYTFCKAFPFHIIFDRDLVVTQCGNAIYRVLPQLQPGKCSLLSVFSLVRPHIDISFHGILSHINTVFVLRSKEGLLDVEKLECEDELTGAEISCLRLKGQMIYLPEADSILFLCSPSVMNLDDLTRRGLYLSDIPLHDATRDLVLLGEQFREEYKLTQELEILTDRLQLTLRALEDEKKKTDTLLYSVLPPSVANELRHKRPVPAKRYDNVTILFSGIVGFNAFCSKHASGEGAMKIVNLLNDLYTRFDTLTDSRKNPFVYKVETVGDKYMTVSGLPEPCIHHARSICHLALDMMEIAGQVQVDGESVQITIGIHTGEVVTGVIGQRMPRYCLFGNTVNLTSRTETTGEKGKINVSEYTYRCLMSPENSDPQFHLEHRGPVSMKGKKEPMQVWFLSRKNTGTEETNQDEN
T1 sequence (P19686 1-690): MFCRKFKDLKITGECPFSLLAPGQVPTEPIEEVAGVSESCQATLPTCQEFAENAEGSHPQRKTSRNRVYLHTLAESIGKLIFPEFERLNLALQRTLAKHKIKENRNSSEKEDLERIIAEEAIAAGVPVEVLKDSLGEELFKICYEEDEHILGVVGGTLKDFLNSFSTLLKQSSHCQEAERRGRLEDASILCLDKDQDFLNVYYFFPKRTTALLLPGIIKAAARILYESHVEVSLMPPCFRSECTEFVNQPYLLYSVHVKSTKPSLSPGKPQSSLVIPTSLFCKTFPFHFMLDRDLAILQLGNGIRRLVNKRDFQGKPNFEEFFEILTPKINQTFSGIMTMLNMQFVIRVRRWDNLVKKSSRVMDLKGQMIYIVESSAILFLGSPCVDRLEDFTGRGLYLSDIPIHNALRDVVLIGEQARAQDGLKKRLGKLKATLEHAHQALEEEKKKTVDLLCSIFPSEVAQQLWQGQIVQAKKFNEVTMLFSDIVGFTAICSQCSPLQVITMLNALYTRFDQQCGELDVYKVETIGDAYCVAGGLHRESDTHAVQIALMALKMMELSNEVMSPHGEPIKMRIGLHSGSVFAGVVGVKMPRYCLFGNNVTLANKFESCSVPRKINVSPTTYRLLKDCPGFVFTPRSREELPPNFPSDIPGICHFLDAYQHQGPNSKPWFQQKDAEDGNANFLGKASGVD
Test: B-2. Action on recombinant guanylate cyclase reporter cell line
Format: cell-based
Conditions: MEC = minimal effective concentration; in some cases mean values from individual determinations
Outline: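 Reported value is the minimal effective concentration (MEC), in some cases a mean of single runs, taken from a recombinant rat guanylate cyclase reporter cell line.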

| Compound | MEC |
| --- | --- |
| Cc1nc2c(OCc3c(F)cccc3F)cccn2c1C(=O)NCCN1CCOCC1 [Example 89, 8-[(2,6-difluorobenzyl)oxy]-2-methyl-N-[2-(morpholin-4-yl)ethyl]imidazo[1,2-a]pyridine-3-carboxamide] | 0.65 µM |
| Cc1nc2c(OCc3c(F)cccc3F)cccn2c1C(=O)NC1CC2CCCC(C1)N2C (stereo not drawn) [Example 90, 8-[(2,6-difluorobenzyl)oxy]-2-methyl-N-(9-methyl-9-azabicyclo[3.3.1]non-3-yl)imidazo[1,2-a]pyridine-3-carboxamide] | 0.10 µM |
| Cc1nc2c(OCc3c(F)cccc3F)cccn2c1C(=O)NC1CC2CCC(C1)N2C (stereo not drawn) [Example 91, 8-[(2,6-difluorobenzyl)oxy]-2-methyl-N-(8-methyl-8-azabicyclo[3.2.1]oct-3-yl)imidazo[1,2-a]pyridine-3-carboxamide] | 1.00 µM |
| Cc1nc2c(OCc3c(F)cccc3F)cccn2c1C(=O)NC1CN2CCC1CC2 (stereo not drawn) [Example 92, N-(1-azabicyclo[2.2.2]oct-3-yl)-8-[(2,6-difluorobenzyl)oxy]-2-methylimidazo[1,2-a]-pyridine-3-carboxamide] | 0.30 µM |
| Cc1cc(OCc2c(F)cccc2F)c2nc(C)c(C(=O)NCC(C)(C)NCC(F)(F)F)n2c1 [Example 94, 8-[(2,6-Difluorobenzyl)oxy]-2,6-dimethyl-N-{2-methyl-2-[(2,2,2-trifluoroethyl)amino]propyl}-imidazo[1,2-a]pyridine-3-carboxamide] | 0.30 µM |
| [2H]C([2H])(Oc1cccn2c(C(=O)NC(CN)c3ccc(F)c(F)c3)c(C)nc12)c1c(F)cccc1F (stereo not drawn) [Example 97, ent-N-[2-Amino-1-(3,4-difluorophenyl)ethyl]-8-{[(2,6-difluorophenyl) (^2H2)methyl]oxy}-2-methylimidazo[1,2-a]pyridine-3-carboxamide] | 0.10 µM |
| Cc1nc2c(OCc3ccccc3F)cccn2c1C(=O)NC(CN)c1ccc(F)c(F)c1 (stereo not drawn) [Example 98, ent-N-[2-Amino-1-(3,4-difluorophenyl)ethyl]-8-[(2-fluorobenzyl)oxy]-2-methylimidazo[1,2-a]-pyridine-3-carboxamide] | 1.00 µM |
| Cc1nc2c(OCc3cccc(F)c3F)cccn2c1C(=O)NC(CN)c1ccc(F)c(F)c1 (stereo not drawn) [Example 99, ent-N-[2-amino-1-(3,4-difluorophenyl)ethyl]-8-[(2,3-difluorobenzyl)oxy]-2-methylimidazo[1,2-a]pyridine-3-carboxamide] | 1.00 µM |
| Cc1nc2c(OCc3c(F)ccc(F)c3F)cccn2c1C(=O)NC(CN)c1ccc(F)c(F)c1 (stereo not drawn) [Example 100, ent-N-[2-amino-1-(3,4-difluorophenyl)ethyl]-2-methyl-8-[(2,3,6-trifluorobenzyl)oxy] imidazo[1,2-a]pyridine-3-carboxamide] | 0.30 µM |
| Cc1nc2c(OCc3c(F)cc(F)cc3F)cccn2c1C(=O)NC(CN)c1ccc(F)c(F)c1 (stereo not drawn) [Example 101, ent-N-[2-amino-1-(3,4-difluorophenyl)ethyl]-2-methyl-8-[(2,4,6-trifluorobenzyl)oxy] imidazo[1,2-a]pyridine-3-carboxamide] | 1.00 µM |
| Cc1nc2c(OCc3c(F)cccc3Cl)cccn2c1C(=O)NC(CN)c1ccc(F)c(F)c1 (stereo not drawn) [Example 102, ent-N-[2-amino-1-(3,4-difluorophenyl)ethyl]-8-[(2-chloro-6-fluorobenzyl)oxy]-2-methylimidazo[1,2-a]pyridine-3-carboxamide] | 1.00 µM |
| Cc1nc2c(OCc3c(F)cccc3F)cccn2c1C(=O)NCC(C)(C)CN [Example 103, N-(3-amino-2,2-dimethylpropyl)-8-[(2,6-difluorobenzyl)oxy]-2-methylimidazo[1,2-a]-pyridine-3-carboxamide] | 3.00 µM |
| Cc1nc2c(OCc3c(F)cccc3F)cc(Cl)cn2c1C(=O)NCCC(C)(C)N [Example 104, N-(3-Amino-3-methylbutyl)-6-chloro-8-[(2,6-difluorobenzyl)oxy]-2-methylimidazo[1,2-a]-pyridine-3-carboxamide] | 0.30 µM |
| Cc1cc(OCc2c(F)cccc2F)c2nc(C)c(C(=O)NCCC(C)(C)N)n2c1 [Example 114, N-(3-amino-3-methylbutyl)-8-[(2,6-difluorobenzyl)oxy]-2,6-dimethylimidazo[1,2-a]-pyridine-3-carboxamide] | 0.30 µM |
| Cc1cc(OCc2c(F)cccc2F)c2nc(C)c(C(=O)NC[C@@H]3CCCN3)n2c1 [Example 115, 8-[(2,6-difluorobenzyl)oxy]-2,6-dimethyl-N-[(2S)-pyrrolidin-2-ylmethyl]imidazo[1,2-a]-pyridine-3-carboxamide] | 1.00 µM |
| Cc1cc(OCc2c(F)cccc2F)c2nc(C)c(C(=O)NC[C@H]3CCCN3)n2c1 [Example 116, 8-[(2,6-difluorobenzyl)oxy]-2,6-dimethyl-N-[(2R)-pyrrolidin-2-ylmethyl]imidazo[1,2-a]-pyridine-3-carboxamide] | 3.00 µM |
| Cc1nc2c(OCc3c(F)cccc3F)cccn2c1C(=O)NCCC(C)(C)N [Example 117, N-(3-amino-3-methylbutyl)-8-[(2,6-difluorobenzyl)oxy]-2-methylimidazo[1,2-a]-pyridine-3-carboxamide] | 1.00 µM |
| Cc1nc2c(OCc3c(F)cccc3F)cccn2c1C(=O)NC(C)[C@H](C)N (stereo partly drawn) [Example 120, N-[(3S)-3-Aminobutan-2-yl]-8-[(2,6-difluorobenzyl)oxy]-2-methylimidazo[1,2-a]pyridine-3-carboxamide] | 0.30 µM |

Continued, values first:

| MEC | Compound |
| --- | --- |
| 0.30 µM | Cc1nc2c(OCc3c(F)cccc3F)cccn2c1C(=O)NC(C)[C@@H](C)N (stereo partly drawn) [Example 121, N-[(3R)-3-Aminobutan-2-yl]-8-[(2,6-difluorobenzyl)oxy]-2-methylimidazo[1,2-a]pyridine-3-carboxamide] |
| 1.00 µM | Cc1nc2c(OCc3c(F)cccc3F)cccn2c1C(=O)NC(CN)COc1ccc(F)c(F)c1 (stereo not drawn) [Example 124, ent-N-[1-Amino-3-(3,4-difluorophenoxy)propan-2-yl]-8-[(2,6-difluorobenzyl)oxy]-2-methylimidazo[1,2-a]pyridine-3-carboxamide Ditrifluoroacetate] |
| 1.00 µM | Cc1nc2c(OCc3c(F)cccc3F)cccn2c1C(=O)NCCNC(C)C [Example 130, 8-[(2,6-difluorobenzyl)oxy]-N-[2-(isopropylamino)ethyl]-2-methylimidazo[1,2-a]-pyridine-3-carboxamide] |
| 3.00 µM | Cc1nc2c(OCc3c(F)cccc3F)cccn2c1C(=O)NCCN1CCS(=O)(=O)CC1 [Example 131, 8-[(2,6-difluorobenzyl)oxy]-N-[2-(1,1-dioxidothiomorpholin-4-yl)ethyl]-2-methylimidazo[1,2-a]pyridine-3-carboxamide] |
| 3.00 µM | Cc1nc2c(OCc3c(F)cccc3F)cccn2c1C(=O)NCCN1CCN(C)CC1 [Example 133, 8-[(2,6-difluorobenzyl)oxy]-2-methyl-N-[2-(4-methylpiperazin-1-yl)ethyl]imidazo[1,2-a]-pyridine-3-carboxamide] |
| 0.10 µM | Cc1cc(OCc2c(F)cccc2F)c2nc(C)c(C(=O)NCCN3CCOCC3)n2c1 [Example 136, 8-[(2,6-difluorobenzyl)oxy]-2,6-dimethyl-N-[2-(morpholin-4-yl)ethyl]imidazo[1,2-a]pyridine-3-carboxamide] |
| 1.00 µM | Cc1cc(OCc2c(F)cccc2F)c2nc(C)c(C(=O)NCCN3CCN(C)CC3)n2c1 [Example 137, 8-[(2,6-difluorobenzyl)oxy]-2,6-dimethyl-N-[2-(4-methylpiperazin-1-yl)ethyl]imidazo[1,2-a]-pyridine-3-carboxamide] |
| 1.00 µM | Cc1cc(OCc2c(F)cccc2F)c2nc(C)c(C(=O)NCCN3CCN(C(C)C)CC3)n2c1 [Example 139, 8-[(2,6-difIuorobenzyl)oxy]-N-[2-(4-isopropylpiperazin-1-yl)ethyl]-2,6-dimethylimidazo[1,2-a]pyridine-3-carboxamide] |
| 1.00 µM | Cc1nc2c(OCc3c(F)cccc3F)cc(F)cn2c1C(=O)NCC(C)(C)N [Example 140, N-(2-Amino-2-methylpropyl)-8-[(2,6-difluorobenzyl)oxy]-6-fluoro-2-methylimidazo[1,2-a]-pyridine-3-carboxamide] |
